Assay results published in US20100204113A1, “USE OF STRESSCOPIN-RELATED PEPTIDE AS A THERAPEUTIC AGENT” (priority 2007, published 2010).
No end group written: not given here.

What was measured:
HepG2-2.2.15 cells = assay: Cytotoxicity in the HBV assay (dye uptake); type: cell-based; conditions: peptide 10 micrograms per ml
HIV-1IIIB = assay: HIV-1 antiviral assay (CPE reduction, MTS); type: cell-based; conditions: peptide 10 micrograms per ml, 6 days post-infection
CEM-SS cells = assay: Cytotoxicity in the HIV-1 assay (cell viability, MTS); conditions: peptide 10 micrograms per ml
MRC-5 cells = conditions: human, 6 days
[1] = tested on: hepatitis B virus (HBV) ayw strain; assay: HBV assay (secreted HBV DNA, TaqMan PCR); type: cell-based; conditions: HepG2-2.2.15; peptide 10 micrograms per ml; six days; HBV DNA in supernatant
[2] = Cytotoxicity in the HBV assay (dye uptake); type: cell-based; conditions: human, HepG2-2.2.15 cells, peptide 10 micrograms per ml, read-out: % Cell Viability
Pseudomonas aeruginosa = type: cell-based; conditions: 5 micrograms per ml
Streptococcus pneumoniae = type: cell-based; conditions: 5 micrograms per ml
A549 cells [3] = assay: Cell cycle assay (propidium iodide, FACS); type: cell-based, human; conditions: peptide 10 micrograms per ml, 24 hours
Excerpt: The cell cycle consists of four distinct phases: […]

[4] = tested on: Human Peripheral Blood Mononuclear Cells (PBMC); assay: B cell proliferation assay (SAC plus Interleukin-2, 3H-thymidine); type: cell-based; conditions: peptide 10 micrograms per ml, 3H-thymidine incorporation
RAW 264.7 cells = assay: Phagocytosis assay (Fluorescein-labeled Escherichia coli, flow cytometry); type: cell-based, mouse; conditions: peptide 10 micrograms per ml, 30 min preincubation, 60 min ingestion
A549 cells [5] = assay: Apoptosis induction assay (Annexin-5); type: cell-based, human; conditions: peptide 10 micrograms per ml, 24 hours
Excerpt: Human A549 cells (carcinomic human alveolar basal epithelial cells) were utilized in the experiments employing the Annexin-5 apoptosis assay.

A549 cells [6] = assay: Apoptosis prevention assay (C2 ceramide, Annexin-5); type: cell-based, human; conditions: 30 min pretreatment with peptide 10 micrograms per ml, then C2 ceramide
spleen cells = assay: Th1/Th2 cytokine profiling assay (Ovalbumin restimulation, CBA kit); type: cell-based, Balb/c mice; conditions: peptide 10 micrograms per ml, 72 hours
[7] = tested on: macrophages prepared from human PBMC; assay: TNF alpha production assay (LPS-stimulated macrophages, ELISA); type: cell-based; conditions: peptide 10 micrograms per ml, 30 min preincubation, lipopolysaccharide 200 ng/ml overnight
Excerpt: Not stimulated macrophages served as negative background control.

[8] = tested on: Primary Human endothelial cells (HUVEC); assay: Endothelial cell migration assay; type: cell-based; conditions: peptide 10 micrograms per ml, 22 hours
HUVEC = assay: Endothelial tube formation assay; type: cell-based, human; conditions: peptide 10 micrograms per ml, 20 hours
Excerpt: Positive control was vehicle only.

MRSA = conditions: 5 micrograms per ml
in vitro [9] = conditions: human, CEM-SS cells
in vitro [10] = conditions: human, MRC-5 cells
HCMV strain AD169 = assay: HCMV plaque reduction assay; conditions: MRC-5 cells; peptide 10 micrograms per ml; 7-10 days
[11] = tested on: Human Peripheral Blood Mononuclear Cells (PBMC); assay: T cell proliferation assay (PHA, 3H-thymidine); conditions: peptide 10 micrograms per ml, 3H-thymidine incorporation

Nc1ccn([C@@H]2CS[C@H](CO)O2)c(=O)n1 [3TC, Lamivudine, reference compound]
% Cell viability (HepG2-2.2.15 cells): 95.8%

Cc1cn([C@H]2C[C@H](N=[N+]=[N-])[C@@H](CO)O2)c(=O)[nH]c1=O [AZT, reference compound]
% CPE reduction in HIV-1 infected CEM-SS cells (HIV-1IIIB): 99%
% Cell viability (CEM-SS cells): 97%

Nc1nc(O)c2ncn(COC(CO)CO)c2n1 [Ganciclovir]
% Cell viability (MRC-5 cells): 100%

HPGSRIVLSLDVPIGLLQILLEQARARAAREQATTNARILARV-NH2 [Stresscopin-related peptide]
% CPE reduction in HIV-1 infected CEM-SS cells (HIV-1IIIB): 0.0%
% inhibition of HBV replication in HEP G2 cells [1]: 0.0%
viability at 144 h, 10 micrograms per ml [2]: 100%
% inhibition (Pseudomonas aeruginosa): 0.0%
% inhibition (Streptococcus pneumoniae): 0.0%
Cell cycle analysis G0/G1 (A549 cells [3]): 56.9
Cell cycle analysis G2/M (A549 cells [3]): 9.7
Cell cycle analysis S (A549 cells [3]): 33.4
% of SAC/IL2 induced control [4]: 91.4%
% of control phagocytosis (RAW 264.7 cells): 131.4%
% of induction (A549 cells [5]): 1.2%
% prevention of ceramide induced apoptosis (A549 cells [6]): 0.0%
IFNγ spleen cells; TH1 response (% of control) (spleen cells): 105.6 % of control
IL-2 spleen cells (% of control) (spleen cells): 66.8 % of control
IL-4 spleen cells; TH2 response (% of control) (spleen cells): 68.9 % of control
IL-5 spleen cells; TH2 response (% of control) (spleen cells): 67.0 % of control
TNF-a spleen cells; TH1 response (% of control) (spleen cells): 125.6 % of control
% of LPS induction [7]: 117.0%
% inhibition of migration [8]: 15%
% inhibition of tube formation (HUVEC): 35%
% inhibition (MRSA): 0.0%
viability at 10 micrograms per ml (in vitro [9]): 100%
viability at 144 h, 10 micrograms per ml (in vitro [10]): 100%
% plaque reduction (HCMV strain AD169): 0.0%
% of PHA induced control [11]: 92.6%
